Assay results as given in PMC7920280, “The Multi-Targeting Ligand ST-2223 with Histamine H3 Receptor and Dopamine D2/D3 Receptor Antagonist Properties Mitigates Autism-Like Repetitive Behaviors and Brain Oxidative Stress in Mice” (International Journal of Molecular Sciences, 2021).

Experiments:
[1] = system: catalase (CAT); assay: Catalase (CAT) activity in brain parts of treated BTBR mice; assay type: in vivo; settings: i.p., ST-2223 5 mg/kg, RAM 10 mg/kg, ARP 1 mg/kg, MEM 5 mg/kg, mean ± SEM; for CAT, Prefrontal Cortex: n = 3-6, BTBR vehicle 80.1 ± 14.9; for CAT, Striatum: n = 3-6, BTBR vehicle 104.6 ± 2.28; for CAT, Hippocampus: n = 3-6, BTBR vehicle 111.4 ± 4.8; for CAT, Cerebellum: n = 3-6, BTBR vehicle 130. 7 ± 3.3
Method: At the end of the behavioral assessments, the animals were sacrificed following previously published protocols. Animals were anesthetized with pentobarbital (40 mg/kg, body weight, i.p.), sacrificed, and perfused via intracardial infusion to wash out the blood, using 1× PBS (0.01 M phosphate buffer, 0.0027 M potassium chloride and 0.137 M sodium chloride) at pH 7.4. […] The brains were then quickly removed and placed on an ice plate. The cerebellum, hippocampus, prefrontal and striatum were excised from the brain and snap-frozen in liquid nitrogen for further use in biochemical assessments. On the day of the biochemical tests, the tissues were homogenized using radioimmunoprecipitation assay (RIPA) buffer (50 mM Tris HCl, pH 7.4, 140 mM NaCl, 1 mM EDTA, 0.5% Triton X-100 and 0.5% sodium deoxycholate) supplemented with protease and phosphatase inhibitors. Then, the homogenates were centrifuged at 14,000 rpm for 30 min (4 °C), and the supernatant was used for evaluation of lipid peroxidation, glutathione, and antioxidant enzymes using spectrophotometric measurements and enzyme-linked immunosorbent assays (ELISA)..
To assess the activity of antioxidant enzymes Superoxide dismutase (SOD) and Catalase (CAT), commercially available kits were used, following the manufacturer’s instructions, and as previously reported. Cayman assay kits (Cayman Chemicals Company, Ann Arbor, MI, USA) were used to assess antioxidant enzyme (superoxide dismutase (SOD) and catalase (CAT)) activities in experimental animals. Catalase assay: Twenty microliters of samples or standards and 30 μL of methanol was added to the assay buffer (100 μL) in 96-well plates. To this mixture, twenty microliter of hydrogen peroxide was added and incubated for 20 min at room temperature (RT) to initiate the reaction. Following incubation, 30 μL of potassium hydroxide was used to terminate the reaction, followed by subsequent addition of catalase purpald (30 μL) and catalase potassium periodate (10 μL). The plate was incubated for 5 min at room temperature in a shaker and the plate was read at 540 nm using a microplate reader. Catalase activity was expressed as nmol/min/mg protein. Superoxide dismutase assay: ten microliters of sample or standard was added in 96-well plates. Twenty microliters of xanthine oxidase were added to initiate the reaction. The reaction mixture was mixed for few seconds and incubated (covered) for 30 min at room temperature (RT). Absorbance was read at 450 nm using microplate reader. The activity of SOD was expressed as units/mg protein.

[2] = system: VPA mouse model of ASD; set-up: method as in PMID 26074764; settings: cited from earlier work
[3] = target: EeAChE (Electrophorus electricus, UniProt O42275); assay: Acetylcholinesterase inhibition, modified Ellman's method; assay type: biochemical, electric eel; settings: 1 μM (1000 nM) of compound; preliminary data
[4] = target: T1, hD3Rs (Homo sapiens, UniProt P35462); assay: [3H]spiperone displacement assay, CHO cell membranes; assay type: binding
T1 construct: expressed in transfected cells
Method: (§1) In accordance with previous experimental protocols, the binding affinity of ST-2223 for H3Rs was assessed by applying the [^3H]N^α-methylhistamine binding assay, performed with cell membrane preparation of HEK cells stably expressing the human H3R (n = 4). In addition, and as previously described, the binding affinity of ST-2223 for human dopamine hD1Rs and hD5Rs (HEK) against [^3H]SCH23390 and hD2SRs, hD3Rs (CHO) using [^3H]spiperone (n = 3) was assessed (n = 3).

[5] = target: T2, hD2SRs (Homo sapiens, UniProt P14416); assay: as above; assay type: binding
T2 construct: expressed in transfected cells
Method: as §1

[6] = target: T3, hH1R (Homo sapiens, UniProt P35367); assay: [3H]pyrilamine binding assay, membranes of CHO cells
T3 construct: expressed in transfected cells

[7] = target: T4, hD5Rs (Homo sapiens, UniProt P21918); assay: [3H]SCH23390 displacement assay, HEK cell membranes; assay type: binding
T4 construct: expressed in transfected cells
Method: as §1

[8] = target: T5, hD1Rs (Homo sapiens, UniProt P21728); assay: as above; assay type: binding
T5 construct: expressed in transfected cells
Method: as §1

[9] = target: T6, human H3R (Homo sapiens, UniProt Q9Y5N1); assay: [3H]Nα-methylhistamine binding assay, membranes of HEK cells; settings: HEK cells stably expressing human H3R, n = 4; read-out: Ki (hH3R)
T6 construct: expressed in transfected cells
Method: as §1

[10] = target: EqBuChE (Equus caballus, UniProt P81908); assay: Butyrylcholinesterase inhibition, modified Ellman's method; assay type: biochemical, equine; settings: 1 μM (1000 nM) of compound; preliminary data, n = 2
[11] = set-up: method as in PMID 31647973; settings: systemic pretreatment; cited from earlier work

T1 sequence (P35462 whole entry): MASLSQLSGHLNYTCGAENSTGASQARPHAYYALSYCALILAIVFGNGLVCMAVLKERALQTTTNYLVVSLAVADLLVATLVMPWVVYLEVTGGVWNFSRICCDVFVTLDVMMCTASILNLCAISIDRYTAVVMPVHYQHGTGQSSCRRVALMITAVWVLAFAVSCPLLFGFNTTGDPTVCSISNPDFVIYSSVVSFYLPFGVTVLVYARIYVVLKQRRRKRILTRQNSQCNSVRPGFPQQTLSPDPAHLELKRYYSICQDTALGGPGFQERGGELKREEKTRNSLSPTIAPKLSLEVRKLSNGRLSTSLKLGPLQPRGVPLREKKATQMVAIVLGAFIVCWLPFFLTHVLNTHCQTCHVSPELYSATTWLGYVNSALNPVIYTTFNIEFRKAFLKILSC
T2 sequence (P14416 1-414 isoform P14416-2): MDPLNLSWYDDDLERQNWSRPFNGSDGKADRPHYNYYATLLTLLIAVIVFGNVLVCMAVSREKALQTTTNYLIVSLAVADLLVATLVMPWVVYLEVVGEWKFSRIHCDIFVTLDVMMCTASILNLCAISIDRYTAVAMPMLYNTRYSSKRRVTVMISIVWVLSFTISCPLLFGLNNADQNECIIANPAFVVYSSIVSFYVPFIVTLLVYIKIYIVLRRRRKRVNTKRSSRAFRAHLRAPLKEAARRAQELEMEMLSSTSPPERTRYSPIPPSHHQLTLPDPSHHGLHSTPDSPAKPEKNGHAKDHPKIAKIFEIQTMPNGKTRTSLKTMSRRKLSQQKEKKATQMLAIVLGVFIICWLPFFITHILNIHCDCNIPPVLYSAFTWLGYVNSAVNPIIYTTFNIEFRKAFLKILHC
T5 sequence (P21728 whole entry): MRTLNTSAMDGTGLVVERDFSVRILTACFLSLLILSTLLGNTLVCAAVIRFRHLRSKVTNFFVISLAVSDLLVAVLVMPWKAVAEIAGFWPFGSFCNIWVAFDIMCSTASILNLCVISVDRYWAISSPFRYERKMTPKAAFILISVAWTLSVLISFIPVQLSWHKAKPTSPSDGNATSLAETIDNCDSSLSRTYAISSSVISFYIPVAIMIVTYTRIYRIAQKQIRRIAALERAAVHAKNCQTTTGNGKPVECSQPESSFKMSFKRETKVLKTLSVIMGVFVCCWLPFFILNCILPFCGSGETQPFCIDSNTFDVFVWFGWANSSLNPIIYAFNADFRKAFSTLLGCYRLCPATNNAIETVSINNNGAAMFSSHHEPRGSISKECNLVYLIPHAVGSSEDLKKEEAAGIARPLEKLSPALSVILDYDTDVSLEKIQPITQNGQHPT
T3 sequence (P35367 whole entry): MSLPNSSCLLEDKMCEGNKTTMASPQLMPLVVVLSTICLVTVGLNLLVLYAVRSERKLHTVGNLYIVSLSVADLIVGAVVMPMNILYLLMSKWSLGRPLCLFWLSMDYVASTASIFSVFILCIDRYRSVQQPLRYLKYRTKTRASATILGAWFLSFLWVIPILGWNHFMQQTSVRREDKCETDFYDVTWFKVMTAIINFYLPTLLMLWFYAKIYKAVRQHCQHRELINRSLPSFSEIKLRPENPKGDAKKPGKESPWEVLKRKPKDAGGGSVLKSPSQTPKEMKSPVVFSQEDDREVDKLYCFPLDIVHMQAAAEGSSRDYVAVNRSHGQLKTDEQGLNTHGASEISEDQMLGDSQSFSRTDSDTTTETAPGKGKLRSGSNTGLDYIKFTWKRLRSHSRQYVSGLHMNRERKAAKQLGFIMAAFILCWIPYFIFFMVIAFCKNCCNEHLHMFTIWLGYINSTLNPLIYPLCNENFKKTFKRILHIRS
T6 sequence (Q9Y5N1 whole entry): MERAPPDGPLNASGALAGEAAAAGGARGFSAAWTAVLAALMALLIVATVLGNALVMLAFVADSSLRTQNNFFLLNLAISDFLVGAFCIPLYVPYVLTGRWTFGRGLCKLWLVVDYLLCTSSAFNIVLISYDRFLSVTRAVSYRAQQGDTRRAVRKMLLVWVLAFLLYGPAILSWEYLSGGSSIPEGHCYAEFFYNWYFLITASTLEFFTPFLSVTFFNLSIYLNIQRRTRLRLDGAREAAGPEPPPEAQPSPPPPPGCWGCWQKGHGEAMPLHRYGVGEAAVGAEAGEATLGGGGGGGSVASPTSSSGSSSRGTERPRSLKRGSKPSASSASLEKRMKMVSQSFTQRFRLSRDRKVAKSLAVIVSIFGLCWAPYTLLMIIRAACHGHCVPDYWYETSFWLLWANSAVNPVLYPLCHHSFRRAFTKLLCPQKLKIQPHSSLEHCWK
Sequence of EeAChE (O42275 24-633): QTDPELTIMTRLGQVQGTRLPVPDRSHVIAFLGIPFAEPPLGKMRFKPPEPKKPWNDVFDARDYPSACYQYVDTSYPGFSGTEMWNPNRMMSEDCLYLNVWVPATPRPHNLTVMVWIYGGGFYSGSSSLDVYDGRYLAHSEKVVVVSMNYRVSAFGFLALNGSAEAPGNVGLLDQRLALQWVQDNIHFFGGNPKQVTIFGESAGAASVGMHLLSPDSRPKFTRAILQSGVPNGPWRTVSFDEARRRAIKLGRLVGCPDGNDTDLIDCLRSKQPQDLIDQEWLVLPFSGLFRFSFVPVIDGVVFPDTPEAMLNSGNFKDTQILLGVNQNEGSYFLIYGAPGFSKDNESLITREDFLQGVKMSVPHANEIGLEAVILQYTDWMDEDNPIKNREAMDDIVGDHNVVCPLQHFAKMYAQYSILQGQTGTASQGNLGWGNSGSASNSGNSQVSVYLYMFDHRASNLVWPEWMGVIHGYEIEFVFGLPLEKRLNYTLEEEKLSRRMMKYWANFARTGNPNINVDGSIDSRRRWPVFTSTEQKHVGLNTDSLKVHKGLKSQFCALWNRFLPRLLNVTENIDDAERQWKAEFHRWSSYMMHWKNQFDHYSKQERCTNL
Sequence of EqBuChE (P81908 whole entry): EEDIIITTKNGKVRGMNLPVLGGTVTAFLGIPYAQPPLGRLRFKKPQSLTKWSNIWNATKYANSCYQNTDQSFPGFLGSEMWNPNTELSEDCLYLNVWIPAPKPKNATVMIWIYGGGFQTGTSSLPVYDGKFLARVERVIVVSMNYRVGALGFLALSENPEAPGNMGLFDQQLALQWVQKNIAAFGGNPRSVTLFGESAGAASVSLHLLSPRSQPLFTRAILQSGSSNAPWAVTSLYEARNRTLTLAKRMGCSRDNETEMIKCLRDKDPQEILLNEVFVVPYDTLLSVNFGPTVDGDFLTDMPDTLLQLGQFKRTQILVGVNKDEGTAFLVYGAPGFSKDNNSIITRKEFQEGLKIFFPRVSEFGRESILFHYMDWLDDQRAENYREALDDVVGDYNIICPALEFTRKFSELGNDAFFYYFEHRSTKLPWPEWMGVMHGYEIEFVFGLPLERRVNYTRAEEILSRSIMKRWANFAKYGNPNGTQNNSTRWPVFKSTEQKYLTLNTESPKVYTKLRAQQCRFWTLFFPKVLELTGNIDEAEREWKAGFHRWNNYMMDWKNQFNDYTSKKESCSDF
T4 sequence (P21918 whole entry): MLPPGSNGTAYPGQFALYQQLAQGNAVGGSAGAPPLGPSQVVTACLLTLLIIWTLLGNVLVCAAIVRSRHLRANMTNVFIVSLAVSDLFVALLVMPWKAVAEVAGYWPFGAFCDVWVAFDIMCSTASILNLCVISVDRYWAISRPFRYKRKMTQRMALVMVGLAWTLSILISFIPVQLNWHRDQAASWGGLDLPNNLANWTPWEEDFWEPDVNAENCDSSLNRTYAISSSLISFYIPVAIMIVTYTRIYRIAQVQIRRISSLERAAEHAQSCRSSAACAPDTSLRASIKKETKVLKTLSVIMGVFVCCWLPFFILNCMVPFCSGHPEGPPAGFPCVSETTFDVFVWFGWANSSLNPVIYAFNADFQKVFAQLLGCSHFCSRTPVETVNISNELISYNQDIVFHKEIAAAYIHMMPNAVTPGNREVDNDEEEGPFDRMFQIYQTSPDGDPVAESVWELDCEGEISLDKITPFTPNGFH

| SMILES | CAT, Prefrontal Cortex [1] | CAT, Striatum [1] | CAT, Hippocampus [1] | CAT, Cerebellum [1] | social deficits and repetitive behaviors (self-grooming, jumping) [2] | inhibition at 1 µM [3] | Ki [4] | hD2R/hD3R ratio of Ki values ([4]; preference for hD3R) | Ki [5] | Ki [6] | Ki [7] | Ki [8] | Ki [9] | inhibition at 1 µM [10] | enhanced frequency of self-grooming induced by neuromedin U [11] |
| --- | --- | --- | --- | --- | --- | --- | --- | --- | --- | --- | --- | --- | --- | --- | --- |
| CC12CC3CC(C)(C1)CC(N)(C3)C2 [MEM, memantine] | 94.1 ± 4.8 nmol/min/mg protein | 108.1 ± 3.4 nmol/min/mg protein | 114.3 ± 11.2 nmol/min/mg protein | 132.3 ± 4.5 nmol/min/mg protein | rescued | – | – | – | – | – | – | – | – | – | – |
| COc1ccccc1N1CCN(CCCCNC(=O)c2ccc3cc(OCCCN4CCCCC4)ccc3c2)CC1 [ST-2223, N-(4-(4-(2-methoxyphenyl)piperazin-1-yl)butyl)-6-(3-(piperidin-1-yl)propoxy)-2-naphthamide] | 116.8 ± 5.3 nmol/min/mg protein | 119.1 ± 3.7 nmol/min/mg protein | 173.0 ± 1.9 nmol/min/mg protein | 120.6 ± 8.8 nmol/min/mg protein | – | < 60% | 0.002 µM | 10 | 0.0198 µM | 0.0852 µM | 5.06 µM | 0.564 µM | 0.0048 µM | < 30% | – |
| O=C1CCc2ccc(OCCCCN3CCN(c4cccc(Cl)c4Cl)CC3)cc2N1 [ARP, aripiprazole] | 96.2 ± 1.3 nmol/min/mg protein | 120.5 ± 10.1 nmol/min/mg protein | 118.3 ± 6.5 nmol/min/mg protein | 159.2 ± 5.1 nmol/min/mg protein | – | – | – | – | – | – | – | – | – | – | attenuation |
